This passage reports GI50 and TGI results from PubChem BioAssay (NCI).

Test systems include OVCAR-4 ovarian; SR leukemia; SF-268 CNS; DU-145 prostate; K-562 leukemia; A498 renal; SNB-19 CNS; SNB-75 CNS.
What all share (assay): growth of human tumour cells (NCI), 48 h

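Briefly, cells in 96-well plates were exposed to five compound concentrations for 48 h, and endpoints were estimated by linear interpolation. GI50 marks 50% less growth. TGI denotes the concentration required for complete inhibition of growth.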

For the molecule `O=C(Cc1ccccc1)NC(c1ccc(Cl)cc1)c1c(O)ccc2ccccc12` (stereo not drawn), the GI50 with OVCAR-4 ovarian was 2.73 µM; in the test on SR leukemia, 2.56 µM; in the test on SF-268 CNS, 4.25 µM; in the test on DU-145 prostate, 4.68 µM; in the test on K-562 leukemia it was 3.1 µM; in the test with A498 renal, 0.985 µM. Also, the GI50 in the test with SNB-19 CNS was 3.25 µM; with SNB-75 CNS it was 2.22 µM. Further, the TGI stood at 10.2 µM in the test on OVCAR-4 ovarian; 10.1 µM in the test with SR leukemia; 16 µM in the test with SF-268 CNS; 17 µM in the test on DU-145 prostate; 26.3 µM in the test with K-562 leukemia; 7.72 µM in the test on A498 renal. For the same molecule, the TGI with SNB-19 CNS is 13.8 µM; in the test with SNB-75 CNS, 12.4 µM.

For `O=S(=O)(CCNCc1ccc(-c2ccc3ncnc(Nc4ccc(OCc5cccc(F)c5)c(Cl)c4)c3c2)o1)c1ccccc1`, the GI50 was over 25 µM in the test on OVCAR-4 ovarian; over 25 µM with SR leukemia; over 25 µM in the test on SF-268 CNS; over 25 µM with DU-145 prostate; over 25 µM in the test with K-562 leukemia; over 14.6 µM in the test on A498 renal. The GI50 in the test with SNB-19 CNS and in the test with SNB-75 CNS was over 25 µM each time. In addition, the TGI in the test with OVCAR-4 ovarian, in the test on SR leukemia, in the test on SF-268 CNS, with DU-145 prostate, with K-562 leukemia and in the test on A498 renal was over 25 µM in each case. In addition, the TGI in the test on SNB-19 CNS and in the test with SNB-75 CNS was over 25 µM throughout.

Consider H-HIIKKIRTWYRKAWHVLGKV-NH2, for which the GI50 with OVCAR-4 ovarian was 12.8 µM; in the test with SR leukemia it was 7.13 µM; with SF-268 CNS, 3.43 µM; in the test with DU-145 prostate, 4.26 µM; with K-562 leukemia it was 6.56 µM; with SNB-19 CNS, 18.3 µM. In the test on SNB-75 CNS, the GI50 was 11.9 µM. Further, the TGI was 47.5 µM in the test on OVCAR-4 ovarian; 87.8 µM in the test on SR leukemia; 19.8 µM in the test with SF-268 CNS; 15.3 µM with DU-145 prostate; over 100 µM in the test on K-562 leukemia; 62 µM in the test on SNB-19 CNS. The molecule also yielded a TGI in the test with SNB-75 CNS of 30.4 µM.

On to `COc1cc(Nc2nc3cc(C(F)(F)F)ccc3nc2-c2ccccc2)cc(OC)c1OC`, for which the TGI in the test on OVCAR-4 ovarian is 51.3 µM; in the test with SR leukemia, over 100 µM; with SF-268 CNS it was over 100 µM; in the test with K-562 leukemia, over 100 µM; in the test with A498 renal, over 100 µM; in the test on SNB-75 CNS it was over 100 µM.

For the molecule `COC(=O)/C(=N\NC(=S)NN)C(C(=O)OC)C(=O)C(=O)Nc1cccc(C(F)(F)F)c1` (stereo not drawn), the TGI in the test with OVCAR-4 ovarian, with SF-268 CNS, in the test on A498 renal, in the test on SNB-19 CNS and in the test on SNB-75 CNS was over 100 µM throughout.

`COC1=CC(c2ccc[nH]2)=N/C1=C\c1[nH]c(C)c(C(C)=O)c1C`: the GI50 with OVCAR-4 ovarian is 3.51 µM; in the test with SF-268 CNS, 0.854 µM; in the test with DU-145 prostate, 0.355 µM; with K-562 leukemia it was 3.28 µM; with A498 renal it was 18.1 µM; in the test on SNB-19 CNS it was 24.2 µM. Also, the TGI with OVCAR-4 ovarian was over 100 µM; in the test with SR leukemia, 0.379 µM; with SF-268 CNS, over 100 µM; with DU-145 prostate it was over 100 µM; in the test with K-562 leukemia, over 45.4 µM; with A498 renal, 57 µM. The TGI in the test with SNB-19 CNS is over 100 µM.

As to `O=C1NC(c2c(Cl)cccc2Cl)Nc2ccccc21` (stereo not drawn), the TGI in the test with OVCAR-4 ovarian was over 100 µM; in the test on SF-268 CNS, over 100 µM; with DU-145 prostate it was over 100 µM; in the test with A498 renal, over 100 µM; with SNB-19 CNS it was over 100 µM; with SNB-75 CNS, 37.4 µM.

`C=C(C)[C@@H]1CC[C@]2(C(=O)O)CC[C@]3(C)[C@H](CC[C@@H]4[C@@]5(C)C/C(=C/c6ccc(OC)cc6)C(=O)C(C)(C)[C@@H]5CC[C@]43C)[C@@H]12`: the GI50 in the test on OVCAR-4 ovarian was 2.5 µM; in the test with SF-268 CNS it was 2.85 µM; in the test on DU-145 prostate, 3.09 µM; in the test with K-562 leukemia, 2.21 µM; in the test on A498 renal, 2.28 µM; in the test on SNB-19 CNS, 3.07 µM. Also, the GI50 in the test on SNB-75 CNS was 2.68 µM. Moreover, the TGI in the test on OVCAR-4 ovarian is 11.2 µM; in the test on SF-268 CNS, 17.4 µM; in the test on DU-145 prostate, 15.3 µM; in the test on K-562 leukemia, over 100 µM; in the test with A498 renal, 8.47 µM; with SNB-19 CNS it was 17 µM. This molecule also displayed a TGI in the test with SNB-75 CNS of 27.1 µM.

Turning to `NC(=O)Nc1c([N+](=O)[O-])cc(C(F)(F)F)cc1[N+](=O)[O-]`, the TGI in the test on OVCAR-4 ovarian, with SR leukemia, in the test on SF-268 CNS, in the test on K-562 leukemia, in the test on A498 renal and in the test on SNB-19 CNS was over 100 µM in each case.

Take `N#Cc1cc(N(CCCl)CCCl)c([N+](=O)[O-])cc1[N+](=O)[O-]`: the TGI was over 100 µM with OVCAR-4 ovarian; 35.8 µM in the test with SR leukemia; over 100 µM in the test on SF-268 CNS; over 100 µM with DU-145 prostate; over 100 µM in the test on K-562 leukemia; over 100 µM in the test on A498 renal. This molecule also registered a TGI in the test on SNB-19 CNS of over 100 µM.

Take `O=C1CC[C@H](c2ccc(O)c3c2C(=O)[C@@H]2O[C@@H]2C3=O)c2cccc(O)c21`: the GI50 is 3.51 µM in the test on OVCAR-4 ovarian; 0.835 µM in the test on SR leukemia; 2.32 µM in the test with SF-268 CNS; 2.36 µM in the test on K-562 leukemia; 15.5 µM in the test on A498 renal; 10.6 µM in the test on SNB-19 CNS. Besides, the GI50 in the test with SNB-75 CNS is 26.7 µM. In addition, the TGI amounted to 13.9 µM in the test with OVCAR-4 ovarian; 4.57 µM with SR leukemia; 6.17 µM in the test with SF-268 CNS; 10.4 µM in the test with K-562 leukemia; 29 µM with A498 renal; 33.6 µM in the test with SNB-19 CNS. The molecule also came in with a TGI with SNB-75 CNS of over 100 µM.

With `Nc1ccc(-c2nc3ccccc3o2)cc1S`, the GI50 with OVCAR-4 ovarian was 7.58 µM; in the test on SR leukemia, 10.5 µM; in the test on SF-268 CNS, 15 µM; with DU-145 prostate, 19.9 µM; in the test on K-562 leukemia, 19 µM; in the test on A498 renal it was 28.3 µM. For the same molecule, the GI50 in the test with SNB-19 CNS is 22.9 µM. For the same molecule, the TGI is 26 µM in the test on OVCAR-4 ovarian; 64 µM in the test on SR leukemia; 34.5 µM in the test with SF-268 CNS; 55.3 µM in the test with DU-145 prostate; over 100 µM in the test with K-562 leukemia; 70.6 µM with A498 renal. The TGI in the test with SNB-19 CNS stood at 81.3 µM.

With `O=C(O)c1ccccc1-c1ccccc1C(=O)Nc1ccc2c(c1)[nH]c(=O)c1ccccc12`, the TGI in the test on OVCAR-4 ovarian, with SF-268 CNS, in the test on DU-145 prostate, in the test with K-562 leukemia, in the test with A498 renal and in the test with SNB-19 CNS was over 100 µM in each case. In addition, the TGI in the test on SNB-75 CNS is over 100 µM.
